In brackets after ≈: the same amount, converted by molar mass. Read-outs that look alike come from different tables or passages of the source. Positions of bridges follow the written chain, without caps; N, C: chain ends. Non-standard residues stand in square brackets, D forms with d. Residues, ends and D or L forms follow the SMILES beside them. Lys(N3) = [N-]=[N+]=NCCCC[C@H](N)C(=O)O; hArg = N=C(N)NCCCC[C@H](N)C(=O)O; R8 = C=CCCCCCC[C@@](C)(N)C(=O)O; Cba = N[C@@H](CC1CCC1)C(=O)O; S5 = C=CCCC[C@](C)(N)C(=O)O; βAla = NCCC(=O)O; Sar = CNCC(=O)O
Assays:
[1] = Solubility assay (kinetic solubility, PBS pH 7); format: physicochemical; details: pH 7, PBS; for solubility kinetic: pH 7, aqueous buffer, kinetic from dmso stock, read-out: Solubility
How it was run: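 Values derive from peak-area ratios of sample versus a 100 µM standard, scaled by that standard's concentration.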

[2] = Experimental LogD (partition coefficient); details: for logD: not stated, Partition Coeff LogD
[3] = Nanoclick permeability assay
How it was run: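 Azido-peptide permeability was read as loss of NanoBRET signal (donor 450 nm, acceptor 610 nm) after adding NanoBret618-azide at 10 μM final.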

[4] = Lactate dehydrogenase (LDH) release assay; format: cell-based
How it was run: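 LDH release, fluorometric membrane-integrity read-out; HCT116 with stable p53-responsive β-lactamase reporter; 8000 cells/well; 0.5% DMSO final; geometric mean, n≥3 biological replicates.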

[5] = 0% FBS 4Hr, read-out: LDH: Cytotoxicity assay: EC50
[6] = 4 hours, 0% serum, read-out: LDH Cytotoxicity assay EC50
[7] = Nanoclick permeability assay EC50

SMILES | solubility kinetic [1] [µM] | logD [2] | EPSA (physchem) [A^2] | cell entry EC50 [3] [nM] | EC50 [4, 5] [nM] | EC50 [4, 6] [nM] | cell entry EC50 [3, 7] [nM] | EC50 ([4]; LDH: Cytotoxicity assay: EC50) [nM] | Solubility [1] | Partition Coeff LogD [2]
CC(=O)N[C@@H](CCCCN=[N+]=[N-])C(=O)NCCC(=O)N[C@@H](CC(C)C)C(=O)N[C@H](C(=O)N[C@@H](Cc1ccccc1)C(=O)N[C@]1(C)CCCCCCC=CCCC[C@@](C)(C(=O)N[C@@H](CO)C(=O)N[C@@H](C)C(=O)N[C@@H](C)C(N)=O)NC(=O)[C@H](CC2CCC2)NC(=O)[C@H](CCC(N)=O)NC(=O)[C@H](C)NC(=O)[C@H](C)NC(=O)[C@H](Cc2ccc(O)cc2)NC(=O)[C@H](CCC(=O)O)NC1=O)[C@@H](C)O [MP-893, AZIDE-ATSP-7041(W7A)] | 51 (≈ 94.6 µg/mL) | 2.88 | 192 | 1230 | 15000 | 15000 |  |  |  | 
CC(=O)N[C@@H](CCCCN=[N+]=[N-])C(=O)NCCC(=O)N[C@H](C)C(=O)N[C@H](C(=O)N[C@@H](Cc1ccccc1)C(=O)N[C@]1(C)CCCCCCC=CCCC[C@@](C)(C(=O)N[C@@H](CO)C(=O)N[C@@H](C)C(=O)N[C@@H](C)C(N)=O)NC(=O)[C@H](CC2CCC2)NC(=O)[C@H](CCC(N)=O)NC(=O)[C@H](C)NC(=O)[C@H](Cc2c[nH]c3ccccc23)NC(=O)[C@H](Cc2ccc(O)cc2)NC(=O)[C@H](CCC(=O)O)NC1=O)[C@@H](C)O [MP-7470] | 90 (≈ 174 µg/mL) | 2.72 | 228 |  |  |  | > 10000 | > 50000 |  | 
CC(=O)N[C@@H](CCCCN=[N+]=[N-])C(=O)NCCC(=O)N[C@@H](CC(C)C)C(=O)N[C@H](C(=O)N[C@@H](Cc1ccccc1)C(=O)N[C@]1(C)CCCCCCC=CCCC[C@@](C)(C(=O)N[C@@H](CO)C(=O)N[C@@H](C)C(=O)N[C@@H](C)C(N)=O)NC(=O)[C@H](CC2CCC2)NC(=O)[C@@H](C)NC(=O)[C@H](C)NC(=O)[C@H](Cc2c[nH]c3ccccc23)NC(=O)[C@H](Cc2ccc(O)cc2)NC(=O)[C@H](CCC(=O)O)NC1=O)[C@@H](C)O [MP-474] (Ac-[Lys(N3)][βAla]LTF[R8]EYWA[dA][Cba][S5]SAA-NH2; staple 6-13) | 156 (≈ 298 µg/mL) | 3.07 | 222 |  |  |  | 148 | > 50000 |  | 
CC(=O)N[C@@H](CCCCN=[N+]=[N-])C(=O)NCCC(=O)N[C@@H](CC(C)C)C(=O)N[C@H](C(=O)N[C@@H](Cc1ccccc1)C(=O)N[C@]1(C)CCCCCCC=CCCC[C@@](C)(C(=O)N[C@@H](CO)C(=O)N[C@@H](C)C(=O)N(C)CC(N)=O)NC(=O)[C@H](CC2CCC2)NC(=O)[C@H](CCC(N)=O)NC(=O)[C@H](C)NC(=O)[C@H](Cc2c[nH]c3ccccc23)NC(=O)[C@H](Cc2ccc(O)cc2)NC(=O)[C@H](CCC(=O)O)NC1=O)[C@@H](C)O [MP-566] (Ac-[Lys(N3)][βAla]LTF[R8]EYWAQ[Cba][S5]SA[Sar]-NH2; staple 6-13) | 87.5 (≈ 172 µg/mL) | 2.69 | 204 |  |  |  | 132 | > 50600 |  | 
CC(=O)N[C@@H](CCCCN=[N+]=[N-])C(=O)NCCC(=O)N[C@@H](CC(C)C)C(=O)N[C@H](C(=O)N[C@@H](C)C(=O)N[C@]1(C)CCCCCCC=CCCC[C@@](C)(C(=O)N[C@@H](CO)C(=O)N[C@@H](C)C(=O)N[C@@H](C)C(N)=O)NC(=O)[C@H](CC2CCC2)NC(=O)[C@H](CCC(N)=O)NC(=O)[C@H](C)NC(=O)[C@H](Cc2c[nH]c3ccccc23)NC(=O)[C@H](Cc2ccc(O)cc2)NC(=O)[C@H](CCC(=O)O)NC1=O)[C@@H](C)O [MP-892, AZIDE-ATSP-7041 (F3A)] | 101 (≈ 191 µg/mL) | 2.54 | 201 | 465 | > 50600 | > 50000 |  |  |  | 
CC(=O)N(C)CC(=O)N[C@@H](CCCCN=[N+]=[N-])C(=O)NCCC(=O)N[C@@H](C)C(=O)N[C@H](C(=O)N[C@@H](Cc1ccccc1)C(=O)N[C@]1(C)CCCCCCC=CCCC[C@@](C)(C(=O)N[C@@H](C)C(=O)N[C@@H](C)C(=O)N[C@@H](C)C(N)=O)NC(=O)[C@H](CC2CCC2)NC(=O)[C@H](C)NC(=O)[C@H](C)NC(=O)[C@H](Cc2c[nH]c3ccccc23)NC(=O)[C@H](Cc2ccc(O)cc2)NC(=O)[C@H](C)NC1=O)[C@@H](C)O [MP-895] (Ac-[Sar][Lys(N3)][βAla]ATF[R8]AYWAA[Cba][S5]AAA-NH2; staple 7-14) | 2 (≈ 3.74 µg/mL) | 3.46 | 184 |  |  |  | 197 | > 50600 |  | 
CC(=O)N[C@@H](CCCCN=[N+]=[N-])C(=O)NCCC(=O)N[C@@H](CC(C)C)C(=O)N[C@H](C(=O)N[C@@H](Cc1ccccc1)C(=O)N[C@]1(C)CCCCCCC=CCCC[C@@](C)(C(=O)N[C@@H](CO)C(=O)N[C@@H](C)C(=O)N[C@@H](C)C(N)=O)NC(=O)[C@H](CC2CCC2)NC(=O)[C@@H]2CCCCNC(=O)CC[C@H](NC1=O)C(=O)N[C@@H](Cc1ccc(O)cc1)C(=O)N[C@@H](Cc1c[nH]c3ccccc13)C(=O)N[C@@H](C)C(=O)N2)[C@@H](C)O [MP-001] (Ac-[Lys(N3)][βAla]LTF[R8]EYWAK[Cba][S5]SAA-NH2; staple 6-13; lactam 7-11) |  | 3.84 | 173 |  |  |  | 1150 | > 50700 |  | 
CC(=O)N[C@@H](CCCCN=[N+]=[N-])C(=O)NCCC(=O)N[C@@H](CC(C)C)C(=O)N[C@H](C(=O)N[C@@H](Cc1ccccc1)C(=O)N[C@]1(C)CCCCCCC=CCCC[C@@](C)(C(=O)N[C@@H](CO)C(=O)N[C@@H](C)C(=O)N[C@@H](C)C(N)=O)NC(=O)[C@H](CC2CCC2)NC(=O)[C@@H]2CCCN2C(=O)[C@H](C)NC(=O)[C@H](Cc2c[nH]c3ccccc23)NC(=O)[C@H](Cc2ccc(O)cc2)NC(=O)[C@H](CCC(=O)O)NC1=O)[C@@H](C)O [MP-260] (Ac-[Lys(N3)][βAla]LTF[R8]EYWAP[Cba][S5]SAA-NH2; staple 6-13) |  |  | 197 |  |  |  | 246 | > 50600 | Poorly Behaved | Poorly Behaved
CC(=O)N[C@@H](CCCCN=[N+]=[N-])C(=O)NCCC(=O)N(C)CC(=O)N[C@H](C(=O)N[C@@H](Cc1ccccc1)C(=O)N[C@]1(C)CCCCCCC=CCCC[C@@](C)(C(=O)N[C@@H](CO)C(=O)N[C@@H](C)C(=O)N[C@@H](C)C(N)=O)NC(=O)[C@H](CC2CCC2)NC(=O)[C@H](CCC(N)=O)NC(=O)[C@H](C)NC(=O)[C@H](Cc2c[nH]c3ccccc23)NC(=O)[C@H](Cc2ccc(O)cc2)NC(=O)[C@H](CCC(=O)O)NC1=O)[C@@H](C)O [MP-799] (Ac-[Lys(N3)][βAla][Sar]TF[R8]EYWAQ[Cba][S5]SAA-NH2; staple 6-13) | 82.5 (≈ 159 µg/mL) | 2.6 | 219 |  |  |  | > 10000 | > 50600 |  | 
CC(=O)N[C@@H](CCCCN=[N+]=[N-])C(=O)NCCC(=O)N[C@@H](CC(C)C)C(=O)N[C@@H](CCCCNC(=N)N)C(=O)N[C@@H](Cc1ccccc1)C(=O)N[C@]1(C)CCCCCCC=CCCC[C@@](C)(C(=O)N[C@@H](CO)C(=O)N[C@@H](C)C(=O)N[C@@H](C)C(N)=O)NC(=O)[C@H](CC2CCC2)NC(=O)[C@H](CCC(N)=O)NC(=O)[C@H](C)NC(=O)[C@H](Cc2c[nH]c3ccccc23)NC(=O)[C@H](Cc2ccc(O)cc2)NC(=O)[C@H](CCC(=O)O)NC1=O [MP-6897] (Ac-[Lys(N3)][βAla]L[hArg]F[R8]EYWAQ[Cba][S5]SAA-NH2; staple 6-13) | 9 (≈ 18.4 µg/mL) | 2.94 | 210 |  |  |  | 1510 | > 50600 |  | 
CC(=O)N[C@@H](CCCCN=[N+]=[N-])C(=O)NCCC(=O)N[C@@H](CCCCNC(=N)N)C(=O)N[C@H](C(=O)N[C@@H](Cc1ccccc1)C(=O)N[C@]1(C)CCCCCCC=CCCC[C@@](C)(C(=O)N[C@@H](CO)C(=O)N[C@@H](C)C(=O)N[C@@H](C)C(N)=O)NC(=O)[C@H](CC2CCC2)NC(=O)[C@H](CCC(N)=O)NC(=O)[C@H](C)NC(=O)[C@H](Cc2c[nH]c3ccccc23)NC(=O)[C@H](Cc2ccc(O)cc2)NC(=O)[C@H](CCC(=O)O)NC1=O)[C@@H](C)O [MP-6896] (Ac-[Lys(N3)][βAla][hArg]TF[R8]EYWAQ[Cba][S5]SAA-NH2; staple 6-13) | 2.5 (≈ 5.07 µg/mL) | 2.79 | 203 |  |  |  | 1130 |  |  | 
CC(=O)N[C@@H](CCCCN=[N+]=[N-])C(=O)NCCC(=O)N[C@@H](CC(C)C)C(=O)N[C@H](C(=O)N[C@@H](Cc1ccccc1)C(=O)N[C@]1(C)CCCCCCC=CCCC[C@@](C)(C(=O)N[C@@H](CO)C(=O)N[C@H](C)C(=O)N[C@@H](C)C(N)=O)NC(=O)[C@H](CC2CCC2)NC(=O)[C@H](CCC(N)=O)NC(=O)[C@H](C)NC(=O)[C@H](Cc2c[nH]c3cc(Cl)ccc23)NC(=O)[C@H](Cc2ccc(O)cc2)NC(=O)[C@H](CCC(=O)O)NC1=O)[C@@H](C)O [MP-494] | 86.5 (≈ 173 µg/mL) | 3.33 | 210 |  |  |  | 706 | > 50600 |  | 
